In brackets after ≈: the same amount, converted by molar mass. Where two headings read alike, the source gives them in different places.
Key:
mMAGL = molecular target: T1, mMAGL (Mus musculus, UniProt O35678); test: Native MS (RapidFire) 2-AG substrate assay, purified mouse MAGL; format: biochemical; details: purified mouse MAGL, native MS substrate assay; read-out: IC50 mMAGL
T1 sequence (O35678 1-303): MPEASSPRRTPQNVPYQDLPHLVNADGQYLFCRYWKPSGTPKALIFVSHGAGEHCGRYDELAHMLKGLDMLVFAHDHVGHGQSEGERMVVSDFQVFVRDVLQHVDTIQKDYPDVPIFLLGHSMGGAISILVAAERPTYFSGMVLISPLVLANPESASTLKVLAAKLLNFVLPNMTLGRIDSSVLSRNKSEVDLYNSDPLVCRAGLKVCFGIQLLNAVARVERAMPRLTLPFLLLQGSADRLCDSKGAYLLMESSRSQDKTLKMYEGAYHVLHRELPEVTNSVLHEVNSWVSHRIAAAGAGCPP
Method: (§1) In vitro MAGL Inhibition Assay
(§2) Compounds were profiled for MAGL inhibitory activity by determining the enzymatic activity by following the hydrolysis of the natural substrate 2-arachidonoylglycerol (2-AG), resulting in arachidonic acid, which can be followed by mass spectrometry. The 2-AG assay was carried out in 384 well assay plates (PP, Greiner Cat# 784201) in a total volume of 20 µL. Compound dilutions were made in 100% DMSO (VWR Chemicals 23500.297) in a polypropylene plate in 3-fold dilution steps to give a final concentration range in the assay from 12.5 µM to 0.8 pM. 0.25µL compound dilutions (100% DMSO) were added to 9 µL MAGL in assay buffer (50 mM TRIS (GIBCO, 15567-027), 1 mM EDTA (Fluka, 03690-100 mL), 0.01% (v/v) Tween. After shaking, the plate was incubated for 15 min at RT. To start the reaction, 10 µL 2-arachidonoylglycerol in assay buffer was added. The final concentrations in the assay were 50 pM MAGL and 8 µM 2-arachidonoylglyerol. After shaking and 30 min incubation at RT, the reaction was quenched by the addition of 40µL of ACN containing 4µM of d8-arachidonic acid. The amount of arachidonic acid was traced by an online SPE system (Agilent Rapidfire) coupled to a triple quadrupole mass spectrometer (Agilent 6460). A C18 SPE cartridge (G9205A) was used in an ACN/water liquid setup. The mass spectrometer was operated in negative electrospray mode following the mass transitions 303.1 → 259.1 for arachidonic acid and 311.1 → 267.0 for d8-arachidonic acid. The activity of the compounds was calculated based on the ratio of intensities [arachidonic acid / d8-arachidonic acid]. The lowest IC50 value that can be determined with high accuracy is approximately 0.025 nM.

MAGL [1] = molecular target: T2, MAGL (Homo sapiens, UniProt Q99685); test: Native MS (RapidFire) 2-AG substrate assay, purified human MAGL; format: biochemical; details: purified human MAGL, native MS substrate assay; IC50 of covalent inhibitors time-dependent; read-out: IC50 hMAGL
T2 sequence (Q99685 1-303): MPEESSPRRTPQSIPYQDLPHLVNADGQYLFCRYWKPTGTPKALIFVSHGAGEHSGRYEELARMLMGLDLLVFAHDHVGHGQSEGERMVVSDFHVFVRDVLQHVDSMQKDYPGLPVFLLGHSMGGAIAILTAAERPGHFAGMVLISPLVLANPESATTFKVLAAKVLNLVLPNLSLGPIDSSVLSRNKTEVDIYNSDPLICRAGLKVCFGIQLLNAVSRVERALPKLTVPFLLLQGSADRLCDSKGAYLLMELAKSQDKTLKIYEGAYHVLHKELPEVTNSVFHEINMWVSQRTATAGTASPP
Method: as §1, §2

[2] = High throughput kinetic solubility measurement; format: physicochemical; details: phosphate buffer, pH 6.5, aqueous buffer, kinetic from dmso stock
rMAGL = molecular target: T3, rMAGL (Rattus norvegicus, UniProt Q8R431); test: Native MS (RapidFire) 2-AG substrate assay, purified rat MAGL; format: biochemical; details: for loss of potency against rat or cynomolgus monkey orthologs: rat or cynomolgus monkey MAGL
T3 sequence (Q8R431 1-303): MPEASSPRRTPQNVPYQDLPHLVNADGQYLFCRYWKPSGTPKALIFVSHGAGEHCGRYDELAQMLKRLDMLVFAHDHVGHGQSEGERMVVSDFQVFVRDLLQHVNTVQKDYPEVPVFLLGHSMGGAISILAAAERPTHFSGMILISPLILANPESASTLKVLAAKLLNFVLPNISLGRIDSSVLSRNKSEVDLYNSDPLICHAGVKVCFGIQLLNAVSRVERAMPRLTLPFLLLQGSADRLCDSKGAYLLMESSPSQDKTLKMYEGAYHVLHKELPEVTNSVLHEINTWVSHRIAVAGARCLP
Method: as §1, §2

cMAGL = molecular target: T4, cMAGL (Macaca fascicularis, UniProt A0A2K5V664); test: Native MS (RapidFire) 2-AG substrate assay, purified cynomolgus monkey MAGL; format: biochemical; details: purified cynomolgus monkey MAGL, native MS substrate assay; read-out: IC50 cMAGL
T4 sequence (A0A2K5V664 11-297): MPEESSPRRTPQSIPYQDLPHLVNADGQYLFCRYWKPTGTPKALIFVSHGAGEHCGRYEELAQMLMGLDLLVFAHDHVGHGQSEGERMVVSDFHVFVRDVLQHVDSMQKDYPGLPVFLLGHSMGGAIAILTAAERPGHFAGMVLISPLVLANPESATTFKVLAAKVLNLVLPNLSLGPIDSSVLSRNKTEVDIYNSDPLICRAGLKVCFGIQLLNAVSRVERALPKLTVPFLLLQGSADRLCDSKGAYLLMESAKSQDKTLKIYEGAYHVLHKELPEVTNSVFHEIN
Method: as §1, §2

[3] = tested on: serine hydrolases in the mouse brain proteome (MBP); test: Multiplex ABPP in mouse brain proteome; format: biochemical
Method: K = [L][P] = 0.5 [L]T (FP50 − 0.5 [L]T) = FP − 0.5 [L] […]
Mouse brain sample preparation
Mouse tissues were isolated according to guidelines approved by the ethical committee of Leiden University. Male mouse brain (27 weeks old) was homogenized with glass beads (2x 1 min, bullet blender, speed 8) using cold lysis buffer (20 mM Hepes pH 7.2, 1 mM MgCl 2, 2 U/mL Benzonase). The membrane and cytosol were separated by centrifugation. The membrane fraction was resuspended in Hepes/DTT buffer. Protein concentration was determined with Bradford Assay, and samples were diluted to a final concentration of 2.0 mg/mL. Samples were snap -frozen in liquid nitrogen and stored at -80 °C until further use.
Lysate (19 µL, 2 µg/µL) was thawed on ice. For comparative ABPP (irreversible probes), 1 µL of probe (20x stock in DMSO) or pure DMSO was added to the sample, vortexed briefly, and in cubated for 30 minutes at RT. For competitive ABPP (reversible probes), 0.5 µL of the reversible probe (40x stock in DMSO) or pure DMSO (as vehicle) was added to the sample, vortexed briefly, and incubated for 30 […]
minutes at RT. Subsequently, 0.5 µL MB064 (40x stock in DMSO) was added to the proteome sample, vortexed briefly, and incubated for 10 minutes at RT, after which 0.5 µL FP-Bodipy-FL (40x stock in DMSO) was added, vortexed briefly and incubated for 10 minutes at RT. The final volume was 20 - 20.5 µL (5 - 7.5% DMSO). The reaction was quenched by the addition of 7.5 µL of 4*Laemmli-buffer (final concentrations: 60 mM Tris (pH 6.8), 2% (w/v) SDS, 10% (v/v) glycerol, 1.25% (v/v) β-mercaptoethanol, 0.01% (v/v) bromophenol blue). 10 µL (14 µg protein) of the quenched reaction mixture was resolved on 10% acrylamide SDS-PAGE (180 V, 75 min). Fluorescence was measured using a Biorad ChemiDoc MP system (fluorescence channels Cy2, Cy3, Cy5). Gels were then stained using coomassie staining and imaged for protein loading control. Labeling of the respective proteins via MB064 and FP-BODIPY was visualized in two separate channels. […]
Activity based protein profiling (ABPP)
PBMCs were thawed, washed with 1 x PBS and equal amounts of cells were exposed to DMSO (D2650; Sigma-Aldrich) or MAGL inhibitor PF (PF-06795071) in DMSO for 30 min at room temperature with concentrations ranging from 1 nM to 1000 nM. Cells were washed with 1 x PBS and lysed in ice -cold lysis buffer (ab156035; Abcam), lysates were centrifuged at 14,000 x g for 15 minutes at 4°C and supernatants were collected. For ABPP experiments, cell lysates containing equal amounts of protein were incubated with the appropriate concentration of activity -based probe for 30 min at room temperature. The reaction was quenched for 30 min by adding SDS -PAGE loading buffer (NP0007, Thermo). Samples were then separated by SDS-PAGE and bands were detected ChemiDoc Imager (Bio-Rad Laboratories). Following detection, gels were stained with SimplyBlue™ SafeStain (LC6060, Thermo) for 1 hour with gentle agitation and excess stain was removed by destaining in ddH2O for 1 h with gentle agitation. Gels were imaged and protein bands were quantified using Image Lab software (Bio-Rad Laboratories).

[4] = molecular target: T5, NanoLuc luciferase MAGL fusion protein (Homo sapiens, UniProt Q99685); test: Cellular MAGL NanoBRET target engagement assay in live HEK293 cells; format: cell-based; details: live HEK293 cells; read-out: IC50 nanoBRET
T5 sequence (Q99685 1-303): T2 sequence (Q99685 1-303)
Method: This assay was performed as first described before.20
Compounds were profiled by a novel cellular MAGL NanoBRET™ Target Engagement assay, which measures the apparent affinity of test compounds by competitive displacement of a Roche -developed Tracer (WO2021058443, Example 2 121, or probe 4a, respectively), reversibly bound to a NanoLuc ® luciferase MAGL fusion protein in cells.
A HEK293A stable cell line expressing NanoLuc_MAGL was established at Roche and assigned as HEK293A_NanoLuc_MAGL clone #43. A fixed concentration of tracer is added to cells expressing the NanoLuc®_MAGL fusion protein to generate a BRET reporter complex. The introduction of competing compounds results in a dose -dependent decrease in NanoBRET™ energy transfer, which allows quantification of the intracellular affinity of the target protein for the test compound.
HEK293A_NanoLuc_MAGL clone #43 cells were cultured in DMEM (Gibco 31966) with 10% FBS and 800 ug/ml G418. The NanoBRET assay was performed by seeding 5000 cells/well in Costar low - volume white 384-well plate in assay buffer (1% FBS in HBSS), followed by adding the tracer (50 nM Example 21 or 100 nM 4a final concentration) and serial dilutions of test compounds. After 2 hours of incubation, Nanoluciferase substrates and extracellular inhibitors were added following the manufacturer's protocol (Promega, #N2520), and the NanoBRET signaling were quantified with the Paradigm (Molecular Devices).

rat MAGL = details: cited from earlier work
MAGL [5] = molecular target: T2, MAGL; set-up: method as in earlier work; details: Table S2, literature compounds; ref (1), (6)-(12) as indicated per compound; cited from earlier work
[6] = purified rat MAGL, native MS substrate assay, read-out: IC50 rMAGL

SMILES | IC50 (mMAGL) [nM] | IC50 (MAGL [1]) [nM] | solubility kinetic [2] [µg/mL] | IC50 (rMAGL; [6]) [nM] | IC50 (cMAGL) [nM] | IC50 (rMAGL; SI Table 1, read-out: IC50 against purified MAGL ± SEM, Rat) [nM] | loss of potency against rat or cynomolgus monkey orthologs (rMAGL) | IC50 [4] [nM] | labeling selectivity in ABPP (covalent probes) ([3]; mouse brain homogenates, broad range of concentrations) | selectivity in competitive ABPP (reversible probes) ([3]; mouse brain proteome, membrane and cytosolic fraction, 1 μM) | potency on rat MAGL (rat MAGL) | IC50 (MAGL [5]) [nM]
O=C(Oc1ccc([N+](=O)[O-])cc1)N1CCC(C(O)(c2ccc3c(c2)OCO3)c2ccc3c(c2)OCO3)CC1 [JZL-184] | – | – | – | – | – | – | – | – | – | – | severely reduced potency | –
CN1/C(=C/C=C/C=C/C2=[N+](CCCCCC(=O)NCc3cn(CCOc4ccc(C(c5ccc(Cl)cc5)N5CCN(C(=O)OC(C(F)(F)F)C(F)(F)F)CC5)cc4)nn3)c3ccccc3C2(C)C)C(C)(C)c2ccccc21 (stereo not shown) [LEI-463] | – | – | – | – | – | – | – | – | – | – | – | ~10

Further lines, with some results ahead:

IC50 (mMAGL) [nM] | IC50 (MAGL [1]) [nM] | solubility kinetic [2] [µg/mL] | IC50 (rMAGL; [6]) [nM] | IC50 (cMAGL) [nM] | IC50 (rMAGL; SI Table 1, read-out: IC50 against purified MAGL ± SEM, Rat) [nM] | loss of potency against rat or cynomolgus monkey orthologs (rMAGL) | IC50 [4] [nM] | SMILES | labeling selectivity in ABPP (covalent probes) ([3]; mouse brain homogenates, broad range of concentrations) | selectivity in competitive ABPP (reversible probes) ([3]; mouse brain proteome, membrane and cytosolic fraction, 1 μM) | potency on rat MAGL (rat MAGL) | IC50 (MAGL [5]) [nM]
0.31 | 0.47 | < 1 | 0.44 | 0.4 | – | – | – | O=C(O[C@H](CO)C(F)(F)F)N1CC2(CC(CC3=C4C=CC(c5ccc[nH]5)=[N+]4[B-](F)(F)n4cccc43)C2)C1 [Compound 1a] | only selective irreversible labeling of the two MAGL isoforms | – | – | –
0.96 | 0.83 | 139 (≈ 288 µM) | – | 3.86 | 3.54 ± 0.37 | less than 4 fold | 557 | O=C1NC2(CO1)CN(C(=O)N1CC3(CCC(CC4=C5C=CC=[N+]5[B-](F)(F)n5cccc54)CC3)C1)C2 [Compound 3] | – | – | – | –
0.9 | 0.73 | < 0.1 | 2.23 | 0.77 | – | less than 4 fold | – | O=C(N1CC2(CC(CC3=C4C=CC(c5ccc[nH]5)=[N+]4[B-](F)(F)n4cccc43)C2)C1)N1CC2(CC(n3cnc(C4CC4)n3)C2)C1 [Compound 5a] | – | no other potential off-target detectable | – | –
